Where two headings read alike, the source gives them in different places.
Legend:
[1] = system: adult patients with moderate to severe major depressive disorder (MDD); assay: Phase 2 randomized, double-blind, active-controlled trial of DM/BU in major depressive disorder; assay type: in vivo, human; conditions: twice daily for 6 weeks; DM/BU 45 mg/105 mg or bupropion 105 mg
Procedure: The changes from baseline in the Montgomery-Asberg Depression Rating Scale (MADRS) total score over the 6-week treatment period were calculated at each time point and averaged.

[2] = system: daily smokers using 10 or more cigarettes per day (nicotine addiction); assay: Phase 2 randomized, double-blind, active-controlled study of DM/BU for smoking cessation treatment; assay type: in vivo, human
Source text: Enrolled subjects were daily smokers using 10 or more cigarettes per day.
The primary outcome measure was the change in smoking intensity, measured using the number of cigarettes smoked per day, assessed via daily smoking diaries.

[3] = human, in vivo
[4] = system: dextromethorphan metabolism (dextromethorphan/dextrorphan metabolic ratio); conditions: human, in vivo, 3 h
Procedure: (§1) Plasma concentrations of dextromethorphan and dextrorphan 3 hours after dosing were used, with a dextromethorphan/dextrorphan ratio of 0.3 or greater indicating a poor metabolizer phenotype.

[5] = system: patients with agitation associated with Alzheimer's disease; conditions: both, human, in vivo, 5 weeks
Procedure: (§2) A Phase 2/3 randomized, double-blind, controlled, multicenter, U.S. clinical trial was conducted to evaluate the efficacy and safety of DM/BU in patients with agitation associated with Alzheimer's disease. […] Subsequently, patients were randomized in a 1:1 ratio to receive DM/BU or placebo. […] The minimum score on the CMAI is 29, corresponding to the total absence of symptoms, with higher scores corresponding to greater agitation. The primary endpoint of the study was the change from baseline in the CMAI total score at Week 5. P-values were calculated based on least square mean estimates.

[6] = system: metabolism of dextromethorphan to dextrorphan in human liver microsomes; assay: Inhibition of the metabolism of dextromethorphan in human liver microsomes; conditions: human, human liver microsomes, pH 7.4, probe dextromethorphan (5 μM)
Procedure: (§3) The ability of various antidepressant compounds to inhibit the metabolism of dextromethorphan was examined using human liver microsomes.
(§4) After optimal incubation at 37° C., the reactions were terminated by addition of methanol containing internal standard for analytical quantification. The quenched samples were incubated at 4° C. for 10 minutes and centrifuged at 4° C. for 10 minutes. The supernatant was removed, and the metabolite of dextromethorphan (dextrorphan) was analyzed by LC-MS/MS.

[7] = system: patients with treatment resistant depression (TRD); assay: Phase 3 randomized, double-blind, active controlled trial of DM/BU in treatment resistant depression
Source text: Inclusion criteria for the open-label period included males or females 18-65 years of age, a history of inadequate response to 1 or 2 prior antidepressant treatments, established by the Antidepressant Treatment Response Questionaire (ATRQ), and a Hamilton Depression Rating Scale (HAMD-17) total score of ≥18. Inclusion criteria for the double-blind period included inadequate response to 2 or 3 prior antidepressant treatments, including open-label period failure. Exclusion criteria included a history of electroconvulsive therapy, vagus nerve stimulation, transcranial magnetic stimulation, or any experimental central nervous system treatment during the current episode or in the past 6 months, schizophrenia, bipolar disorder, obsessive compulsive disorder, psychiatric symptoms secondary to any other general medical condition.
The change in depressive symptoms over time was measured using the Montgomery-Asberg Depression Rating Scale (MADRS) and the Quick Inventory of Depressive Symptomatology-Self-Rated (QIDS-SR-16). The primary endpoint was the change from baseline in the MADRS after 6 weeks of treatment. The key secondary endpoints were the change from baseline in the MADRS after 1 week of treatment, after 2 weeks of treatment, the average change over entire 6-week double-blind treatment period, and the Sheehan Disability Scale (SDS). Other pre-specified secondary efficacy variables included the Cognitive subscale of the Massachusetts General Hospital Cognitive and Physical Functioning Questionnaire (CPFQ), and the Hamilton Anxiety Scale (HAM-A).

[8] = system: patients with agitation associated with Alzheimer's disease; assay: Phase 2/3 randomized, double-blind, controlled trial of DM/BU in agitation associated with Alzheimer's disease
Procedure: as §2

[9] = system: metabolism of dextromethorphan in human liver microsomes; assay: Inhibition of the metabolism of dextromethorphan in human liver microsomes; conditions: read-out: Mean IC50; human liver microsomes 0.5 mg/mL, dextromethorphan 5 μM, 37° C.; dextrorphan formation
Procedure: as §3, §4

[10] = system: metabolism of dextromethorphan in human liver microsomes
Procedure: as §3, §4

[11] = system: dextromethorphan metabolism (dextromethorphan/dextrorphan metabolic ratio); assay: Phenotypic determination of dextromethorphan metabolizer status (dextromethorphan/dextrorphan metabolic ratio); conditions: Day 8; 3 hours after dosing
Procedure: as §1

[12] = Pharmacokinetic study of dextromethorphan (DM) alone or DM in combination with bupropion, plasma concentrations by LC-MS/MS; conditions: for Cmax: Dextromethorphan Cmax; for average plasma concentration: Day 8, after bupropion administration
[13] = system: metabolism of dextromethorphan to dextrorphan in human liver microsomes; assay: in vitro; conditions: pH 7.4
Procedure: as §3, §4

[14] = DM/BU 45 mg/105 mg or bupropion 150 mg twice daily
[15] = Open-label Period, bupropion 150 mg twice daily

## CC(NC(C)(C)C)C(=O)c1cccc(Cl)c1.Cl (racemic) [Bupropion]
[1]
  Change in MADRS Total Score at week 6: −12.1
  Change in MADRS Total Score over 6-week period (averaged): −8.8
[2]; 3-week period
  proportion of smokers with more than 50% reduction in expired carbon monoxide levels: 30.4%
[2]; over the 3-week period, twice daily
  average reduction in cigarettes smoked per day: 6.79 cigarettes per day
[3]
  reduction in mean dextrorphan AUC0-12: ~55%
  reduction in mean dextrorphan Cmax: ~78%
[4]
  subjects converted to poor metabolizer status: 100%
[5]
  Diarrhea, number of subjects: 3 subjects
  Discontinuation due to AEs, number of subjects: 1 subjects
  Dizziness, number of subjects: 5 subjects
  Falls, % of subjects: (14.3%)
  Falls, number of subjects: 7 subjects
  Fatigue, % of subjects: (10.2%)
  Fatigue, number of subjects: 5 subjects
  Headache, % of subjects: (6.1%)
  Headache, number of subjects: 3 subjects
  Insomnia, % of subjects: (6.1%)
  Insomnia, number of subjects: 3 subjects
  Serious AEs, number of subjects: 4 subjects
  Somnolence, number of subjects: 2 subjects
  Subjects with any TEAE, % of subjects: (61.2%)
  Subjects with any TEAE, number of subjects: 30 subjects
[6]
  IC50: 9.1 µM
[7]; [14]
  mean reduction in MADRS averaged over the entire 6-week treatment period: 6.7
  mean reduction in QIDS-SR-16 averaged over the entire 6-week treatment period: 2.3
[7]; Double-blind Period
  Anxiety, number of subjects: 0 subjects
  Any TEAE, % of subjects: (39.1%)
  Any TEAE, number of subjects: 61 subjects
  Constipation, % of subjects: (1.9%)
  Constipation, number of subjects: 3 subjects
  Dizziness, number of subjects: 0 subjects
  Dry mouth, % of subjects: (1.9%)
  Dry mouth, number of subjects: 3 subjects
  Headache, % of subjects: (4.5%)
  Headache, number of subjects: 7 subjects
  Insomnia, % of subjects: (3.2%)
  Insomnia, number of subjects: 5 subjects
  Irritability, % of subjects: (1.3%)
  Irritability, number of subjects: 2 subjects
  Nausea, % of subjects: (1.9%)
  Nausea, number of subjects: 3 subjects
  rate of discontinuation due to adverse events: 1.9%
[7]; Open-label Period
  Anxiety, % of subjects: (3.5%)
  Anxiety, number of subjects: 11 subjects
  Constipation, % of subjects: (4.2%)
  Constipation, number of subjects: 13 subjects
  Dizziness, % of subjects: (2.9%)
  Dizziness, number of subjects: 9 subjects
  Dry mouth, % of subjects: (4.2%)
  Dry mouth, number of subjects: 13 subjects
  Headache, % of subjects: (4.5%)
  Headache, number of subjects: 14 subjects
  Insomnia, % of subjects: (6.1%)
  Insomnia, number of subjects: 19 subjects
  Irritability, % of subjects: (3.2%)
  Irritability, number of subjects: 10 subjects
  Nausea, % of subjects: (7.1%)
  Nausea, number of subjects: 22 subjects
[7]; [15]
  Any TEAE, % of subjects: (43.5)
  Any TEAE, number of subjects: 135 subjects
[7]; Week 1
  mean MADRS reduction: 3.6
[7]; Week 2
  mean MADRS reduction: 6.1
[7]; Week 6
  rate of remission from depression (QIDS-SR-16 ≤5): 8.2%
[7]; Week 6 (primary endpoint)
  mean MADRS reduction: 9.4
[8]; Safety Population
  Deaths, % of subjects: (2.0%
  Deaths, number of subjects: 1 subjects
[8]; Safety Population, listed as bupropion
  Deaths, number of subjects: one
[8]; Week 5 (primary endpoint)
  mean reduction from baseline in the CMAI total score: 10.0 points

## C[C@@H]1NC(C)(C)CO[C@@]1(O)c1cccc(Cl)c1 [(25,3S)-Hydroxybupropion]
[9]
  IC50: 12.5 µM

## C[C@H]1NC(C)(C)CO[C@]1(O)c1cccc(Cl)c1 [(R,R)-Hydroxybupropion]
[9]
  IC50: 8.2 µM

## CNCC[C@H](Oc1cccc2ccccc12)c1cccs1 [(S)-Duloxetine]
[10]
  IC50: 4.1 µM

## CN(C)CCCC1(c2ccc(F)cc2)OCc2cc(C#N)ccc21 (centres unmarked) [Citalopram]
[6]
  IC50: 14.1 µM

## CN(C)CC(c1ccc(O)cc1)C1(O)CCCCC1 (centres unmarked) [Desvenlafaxine]
[6]
  IC50: 97.3 µM

## COc1ccc2c(c1)[C@]13CCCC[C@@H]1[C@H](C2)N(C)CC3 [Dextromethorphan]
[11]
  mean plasma dextromethorphan/dextrorphan metabolic ratio: remained unchanged
[12]; Day 1
  Mean Trough Dextromethorphan Plasma Concentrations: 0.7 ng/mL
[12]; Day 5
  Mean Trough Dextromethorphan Plasma Concentrations: 1.2 ng/mL
[12]; Day 6
  Mean Trough Dextromethorphan Plasma Concentrations: 1.3 ng/mL
[12]; Day 7
  Mean Trough Dextromethorphan Plasma Concentrations: 1.2 ng/mL
[12]; Day 8
  Dextromethorphan Cavg: 2.3 ng/mL
  Dextromethorphan Cmin: 1.1 ng/mL
  Mean Trough Dextromethorphan Plasma Concentrations: 1.1 ng/mL
  mean elimination half-life (T1/2 el) of dextromethorphan: 6.6 h
[12]; human, in vivo, 60 mg
  AUC(0-inf): 41.2 ng·h/mL
  Tmax: 2.3 h
  concentration at 0 h: 1.2 ng/mL
  concentration at 1 h: 2.4 ng/mL
  concentration at 2 h: 3.6 ng/mL
  concentration at 3 h: 3.6 ng/mL
  concentration at 4 h: 3.3 ng/mL
  concentration at 6 h: 2.5 ng/mL
  concentration at 8 h: 1.9 ng/mL
  concentration at 12 h: 1.1 ng/mL
  concentration at 24 h: 0.4 ng/mL
  concentration at 36 h: 0.1 ng/mL
[12]; human, in vivo, 60 mg, Dextromethorphan AUC0-12, Day 1
  AUC(0-t): 20.1 ng·h/mL
[12]; human, in vivo, 60 mg, Dextromethorphan AUC0-12, Day 8
  AUC(0-t): 28.1 ng·h/mL
[12]; human, in vivo, 60 mg, Dextromethorphan AUC0-24, Day 8
  AUC(0-t): 37.1 ng·h/mL
[12]; human, in vivo, 60 mg, Day 1
  Cmax: 3 ng/mL
[12]; human, in vivo, 60 mg, Day 8
  Cmax: 3.8 ng/mL

## CC(NC(C)(C)C)C(O)c1cccc(Cl)c1 (centres unmarked) [Erythrohydroxybupropion]
[9]
  IC50: 1.4 µM
[12]
  average plasma concentration: ≥ 20 ng/mL

## CN(C)CCC[C@@]1(c2ccc(F)cc2)OCc2cc(C#N)ccc21 [Escitalopram]
[6]
  IC50: 17.1 µM

## COCCCC/C(=N\OCCN)c1ccc(C(F)(F)F)cc1 [Fluvoxamine]
[6]
  IC50: 6.5 µM

## C[C@H](NC(C)(C)C)[C@@H](O)c1cccc(Cl)c1 [Threohydroxybupropion]
[9]
  IC50: 3.9 µM
[12]
  average plasma concentration: ≥ 100 ng/mL

## COc1ccc(C(CN(C)C)C2(O)CCCCC2)cc1 (centres unmarked) [Venlafaxine]
[13]
  IC50: 27.7 µM

## C[C@H]1NC(C)(C)CO[C@]1(O)c1cccc(Cl)c1 [hydroxybupropion]
[12]
  average plasma concentration: ≥ 200 ng/mL
